Molecular target: Human TASK-1 channels (Homo sapiens (Human), UniProt O14649)
Assay: Activity on the TASK-1 channel in Xenopus oocytes (two-microelectrode voltage clamp)
Assay type: cell-based
Settings: not given
Protocol: Human TASK-1 channels were expressed in Xenopus oocytes. For this purpose, oocytes were isolated from Xenopus laevis and defoliculated. Subsequently, TASK-1-encoding RNA synthesized in vitro was injected into oocytes. […] Data were acquired and analyzed using a TEC-10cx amplifier (NPI Electronic, Tamm, Germany) connected to an ITC-16 interface (Instrutech Corp., Long Island, USA) and Pulse software (HEKA Elektronik, Lambrecht, Germany). […] Oocytes were continuously superfused with ND96 buffer containing: NaCl 96 mM, KCl 2 mM, CaCl2 1.8 mM, MgCl2 1 mM, HEPES 5 mM (pH adjusted to 7.4 with NaOH). All experiments were performed at room temperature.
Test substances were consecutively added to the bath solution at rising concentrations. […] IC50 values were obtained by fitting the data to the general dose-response equation.

Sequence of Human TASK-1 channels (O14649 whole entry): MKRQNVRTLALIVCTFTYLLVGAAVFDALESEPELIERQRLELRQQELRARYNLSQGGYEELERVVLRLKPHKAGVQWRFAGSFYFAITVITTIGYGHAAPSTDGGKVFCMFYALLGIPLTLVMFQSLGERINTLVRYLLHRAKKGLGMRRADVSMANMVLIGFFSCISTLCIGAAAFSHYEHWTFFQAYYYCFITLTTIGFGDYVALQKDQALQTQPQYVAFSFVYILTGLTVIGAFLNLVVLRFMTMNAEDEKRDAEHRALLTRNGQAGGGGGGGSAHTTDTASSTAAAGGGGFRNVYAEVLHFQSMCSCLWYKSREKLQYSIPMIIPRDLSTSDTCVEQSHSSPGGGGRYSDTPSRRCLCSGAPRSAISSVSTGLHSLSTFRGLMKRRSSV

Question: With `CC(=O)N1CCc2c(c(-c3cc(C)ccn3)nn2Cc2ccc(F)cc2F)C1` [Example 6x, 1-[1-(2,4-Difluoro-benzyl)-3-(4-methyl-pyridin-2-yl)-1,4,6,7-tetrahydro-pyrazolo[4,3-c]pyridin-5-yl]-ethanone] as the compound, how does the inhibition at 5 µM read?
Answer: 82%

Question: `COc1cccc(-c2nn(Cc3ccc(F)cc3F)c3c2CN(C(C)=O)CC3)n1` [Example 6y, 1-[1-(2,4-Difluoro-benzyl)-3-(6-methoxy-pyridin-2-yl)-1,4,6,7-tetrahydro-pyrazolo[4,3-c]pyridin-5-yl]-ethanone] was tested. Which inhibition at 5 µM did it give?
Answer: 86%

Question: `COc1ccc(-c2nn(Cc3ccc(F)cc3F)c3c2CN(C(C)=O)CC3)nc1Cl` [Example 6z, 1-[3-(6-Chloro-5-methoxy-pyridin-2-yl)-1-(2,4-difluoro-benzyl)-1,4,6,7-tetrahydro-pyrazolo[4,3-c]pyridin-5-yl]-ethanone] was tested. Which inhibition at 5 µM did it give?
Answer: 75%

Question: For `CC(C)(C)OCC(=O)N1CCc2c(c(-c3cccc(C#N)c3)nn2Cc2ccc(F)cc2F)C1` [Example 8d, 3-[5-(2-tert-Butoxy-acetyl)-1-(2,4-difluoro-benzyl)-4,5,6,7-tetrahydro-1H-pyrazolo[4,3-c]pyridin-3-yl]-benzonitrile], which inhibition at 5 µM is on record?
Answer: 75%

Question: For `COCC(=O)N1CCc2c(c(-c3cccc(C#N)c3)nn2Cc2ccc(F)cc2F)C1` [Example 8n, 3-[1-(2,4-Difluoro-benzyl)-5-(2-methoxy-acetyl)-4,5,6,7-tetrahydro-1H-pyrazolo[4,3-c]pyridin-3-yl]-benzonitrile], which inhibition at 5 µM is on record?
Answer: 80%

Question: How did the inhibition at 5 µM turn out when `CCOC(=O)N1CCc2c(c(-c3cccc(C#N)c3)nn2Cc2ccc(F)cc2F)C1` [Example 8y, 3-(3-Cyano-phenyl)-1-(2,4-difluoro-benzyl)-1,4,6,7-tetrahydro-pyrazolo[4,3-c]pyridine-5-carboxylic acid ethyl ester] was run?
Answer: 77%

Question: `CC(C)NC(=O)N1CCc2c(c(-c3cccc(C#N)c3)nn2Cc2ccc(F)cc2F)C1` [Example 11a, 3-(3-Cyano-phenyl)-1-(2,4-difluoro-benzyl)-1,4,6,7-tetrahydro-pyrazolo[4,3-c]pyridine-5-carboxylic acid isopropylamide] was tested. Which inhibition at 5 µM did it give?
Answer: 76%

Question: With `CCNC(=O)N1CCc2c(c(-c3cccc(C#N)c3)nn2Cc2ccc(F)cc2F)C1` [Example 11h, 3-(3-Cyano-phenyl)-1-(2,4-difluoro-benzyl)-1,4,6,7-tetrahydro-pyrazolo[4,3-c]pyridine-5-carboxylic acid ethylamide] as the compound, how does the inhibition at 5 µM read?
Answer: 91%

Same assay, conditions: human TASK-1 expressed in Xenopus oocytes, currents during pulses to 40 mV, room temperature

Question: For `CC(=O)N1CCc2c(c(-c3cccc(Br)n3)nn2Cc2ccc(F)cc2F)C1` [Example 6w, 1-[3-(6-Bromo-pyridin-2-yl)-1-(2,4-difluoro-benzyl)-1,4,6,7-tetrahydro-pyrazolo[4,3-c]pyridin-5-yl]-ethanone], which IC50 is on record?
Answer: < 10000 nM

Question: How did the IC50 turn out when `CC1(C(=O)N2CCc3c(c(-c4cccc(C#N)c4)nn3Cc3ccc(F)cc3F)C2)COC1` [Example 8a, 3-[1-(2,4-Difluoro-benzyl)-5-(3-methyl-oxetane-3-carbonyl)-4,5,6,7-tetrahydro-1H-pyrazolo[4,3-c]pyridin-3-yl]-benzonitrile] was run?
Answer: 276 nM

Question: How did the IC50 turn out when `CC(C)C(=O)N1CCc2c(c(-c3cccc(C#N)c3)nn2Cc2ccc(F)cc2F)C1` [Example 8b, 3-[1-(2,4-Difluoro-benzyl)-5-isobutyryl-4,5,6,7-tetrahydro-1H-pyrazolo[4,3-c]pyridin-3-yl]-benzonitrile] was run?
Answer: 19 nM

Question: `N#Cc1cccc(-c2nn(Cc3ccc(F)cc3F)c3c2CN(C(=O)C2CC2)CC3)c1` [Example 8c, 3-[5-Cyclopropanecarbonyl-1-(2,4-difluoro-benzyl)-4,5,6,7-tetrahydro-1H-pyrazolo[4,3-c]pyridin-3-yl]-benzonitrile] was tested. Which IC50 did it give?
Answer: 47 nM

Question: With `CS(=O)(=O)c1cccc(C(=O)N2CCc3c(c(-c4cccc(C#N)c4)nn3Cc3ccc(F)cc3F)C2)c1` [Example 8e, 3-[1-(2,4-Difluoro-benzyl)-5-(3-methanesulfonyl-benzoyl)-4,5,6,7-tetrahydro-1H-pyrazolo[4,3-c]pyridin-3-yl]-benzonitrile] as the compound, how does the IC50 read?
Answer: 1620 nM

Question: For `O=C(c1ccc(F)cc1)N1CCc2c(c(-c3ccc(F)cc3)nn2Cc2ccccc2)C1` [Example 8f, [1-Benzyl-3-(4-fluoro-phenyl)-1,4,6,7-tetrahydro-pyrazolo[4,3-c]pyridin-5-yl]-(4-fluoro-phenyl)-methanone], which IC50 is on record?
Answer: 1280 nM

Question: `COc1ccc(C(=O)N2CCc3c(c(-c4ccc(F)cc4)nn3Cc3ccccc3)C2)cc1` [Example 8g, [1-Benzyl-3-(4-fluoro-phenyl)-1,4,6,7-tetrahydro-pyrazolo[4,3-c]pyridin-5-yl]-(4-methoxy-phenyl)-methanone] was tested. Which IC50 did it give?
Answer: 3260 nM

Question: With `O=C(c1ccccc1)N1CCc2c(c(-c3ccc(F)cc3)nn2Cc2ccccc2)C1` [Example 8h, [1-Benzyl-3-(4-fluoro-phenyl)-1,4,6,7-tetrahydro-pyrazolo[4,3-c]pyridin-5-yl]-phenyl-methanone] as the compound, how does the IC50 read?
Answer: 2400 nM

Question: `N#Cc1cccc(-c2nn(Cc3ccc(F)cc3F)c3c2CN(C(=O)C2CCC2)CC3)c1` [Example 8i, 3-[5-Cyclobutane-carbonyl-1-(2,4-difluoro-benzyl)-4,5,6,7-tetrahydro-1H-pyrazolo[4,3-c]pyridin-3-yl]-benzonitrile] was tested. Which IC50 did it give?
Answer: 64 nM

Question: For `N#Cc1cccc(-c2nn(Cc3ccc(F)cc3F)c3c2CN(C(=O)C2CCCC2)CC3)c1` [Example 8j, 3-[5-Cyclopentane-carbonyl-1-(2,4-difluoro-benzyl)-4,5,6,7-tetrahydro-1H-pyrazolo[4,3-c]pyridin-3-yl]-benzonitrile], which IC50 is on record?
Answer: 722 nM

Question: How did the IC50 turn out when `CS(=O)(=O)c1ccc(C(=O)N2CCc3c(c(-c4cccc(C#N)c4)nn3Cc3ccc(F)cc3F)C2)cc1` [Example 8k, 3-[1-(2,4-Difluoro-benzyl)-5-(4-methanesulfonyl-benzoyl)-4,5,6,7-tetrahydro-1H-pyrazolo[4,3-c]pyridin-3-yl]-benzonitrile] was run?
Answer: 906 nM

Question: With `N#Cc1cccc(-c2nn(Cc3ccc(F)cc3F)c3c2CN(C(=O)C2CCOCC2)CC3)c1` [Example 8l, 3-[1-(2,4-Difluoro-benzyl)-5-(tetra-hydro-pyran-4-carbonyl)-4,5,6,7-tetrahydro-1H-pyrazolo[4,3-c]pyridin-3-yl]-benzonitrile] as the compound, how does the IC50 read?
Answer: 585 nM

Question: Which IC50 does the source give for `N#Cc1cccc(-c2nn(Cc3ccc(F)cc3F)c3c2CN(C(=O)C2CCOC2)CC3)c1` (centres unmarked) [Example 8m, 3-[1-(2,4-Difluoro-benzyl)-5-(tetrahydro-furan-3-carbonyl)-4,5,6,7-tetrahydro-1H-pyrazolo[4,3-c]pyridin-3-yl]-benzonitrile] here?
Answer: 890 nM

Question: `CC(C)(C)C(=O)N1CCc2c(c(-c3cccc(C#N)c3)nn2Cc2ccc(F)cc2F)C1` [Example 8o, 3-[1-(2,4-Difluoro-benzyl)-5-(2,2-dimethyl-propionyl)-4,5,6,7-tetrahydro-1H-pyrazolo[4,3-c]pyridin-3-yl]-benzonitrile] was tested. Which IC50 did it give?
Answer: 131 nM

Question: With `CCC(=O)N1CCc2c(c(-c3cccc(C#N)c3)nn2Cc2ccc(F)cc2F)C1` [Example 8p, 3-[1-(2,4-Difluoro-benzyl)-5-propionyl-4,5,6,7-tetrahydro-1H-pyrazolo[4,3-c]pyridin-3-yl]-benzonitrile] as the compound, how does the IC50 read?
Answer: 530 nM

Question: With `C[C@H](O)C(=O)N1CCc2c(c(-c3cccc(C#N)c3)nn2Cc2ccc(F)cc2F)C1` [Example 8q, 3-[1-(2,4-Difluoro-benzyl)-5-((S)-2-hydroxy-propionyl)-4,5,6,7-tetrahydro-1H-pyrazolo[4,3-c]pyridin-3-yl]-benzonitrile] as the compound, how does the IC50 read?
Answer: 756 nM

Question: With `O=C(Cc1ccccc1)N1CCc2c(c(-c3ccc(F)cc3)nn2Cc2ccccc2)C1` [Example 8r, 1-[1-Benzyl-3-(4-fluoro-phenyl)-1,4,6,7-tetrahydro-pyrazolo[4,3-c]pyridin-5-yl]-2-phenyl-ethanone] as the compound, how does the IC50 read?
Answer: 1140 nM

Question: For `CCCC(=O)N1CCc2c(c(-c3cccc(C#N)c3)nn2Cc2ccc(F)cc2F)C1` [Example 8s, 3-[5-Butyryl-1-(2,4-difluoro-benzyl)-4,5,6,7-tetrahydro-1H-pyrazolo[4,3-c]pyridin-3-yl]-benzonitrile], which IC50 is on record?
Answer: < 10000 nM

Question: For `N#Cc1cccc(-c2nn(Cc3ccc(F)cc3F)c3c2CN(C(=O)c2ccccn2)CC3)c1` [Example 8t, 3-[1-(2,4-Difluoro-benzyl)-5-(pyridine-2-carbonyl)-4,5,6,7-tetrahydro-1H-pyrazolo[4,3-c]pyridin-3-yl]-benzonitrile], which IC50 is on record?
Answer: 246 nM

Question: For `N#Cc1cccc(-c2nn(Cc3ccc(F)cc3F)c3c2CN(C(=O)c2ccncc2F)CC3)c1` [Example 8u, 3-[1-(2,4-Difluoro-benzyl)-5-(3-fluoro-pyridine-4-carbonyl)-4,5,6,7-tetrahydro-1H-pyrazolo[4,3-c]pyridin-3-yl]-benzonitrile], which IC50 is on record?
Answer: 416 nM

Question: For `N#Cc1cccc(-c2nn(Cc3ccc(F)cc3F)c3c2CN(C(=O)c2ccncn2)CC3)c1` [Example 8v, 3-[1-(2,4-Difluoro-benzyl)-5-(pyrimidine-4-carbonyl)-4,5,6,7-tetrahydro-1H-pyrazolo[4,3-c]pyridin-3-yl]-benzonitrile], which IC50 is on record?
Answer: 864 nM

Question: With `Cn1cncc1C(=O)N1CCc2c(c(-c3cccc(C#N)c3)nn2Cc2ccc(F)cc2F)C1` [Example 8w, 3-[1-(2,4-Difluoro-benzyl)-5-(3-methyl-3H-imidazole-4-carbonyl)-4,5,6,7-tetrahydro-1H-pyrazolo[4,3-c]pyridin-3-yl]-benzonitrile] as the compound, how does the IC50 read?
Answer: 1150 nM

Question: How did the IC50 turn out when `Cn1ccc(C(=O)N2CCc3c(c(-c4cccc(C#N)c4)nn3Cc3ccc(F)cc3F)C2)n1` [Example 8x, 3-[1-(2,4-Difluoro-benzyl)-5-(1-methyl-1H-pyrazole-3-carbonyl)-4,5,6,7-tetrahydro-1H-pyrazolo[4,3-c]pyridin-3-yl]-benzonitrile] was run?
Answer: 1880 nM

Question: How did the IC50 turn out when `CC(=O)N1Cc2c(-c3ccc(F)cc3)nn(Cc3ccc(F)cc3F)c2CC1C` (centres unmarked) [Example 8z, 1-[1-(2,4-Difluoro-benzyl)-3-(4-fluoro-phenyl)-6-methyl-1,4,6,7-tetrahydro-pyrazolo[4,3-c]pyridin-5-yl]-ethanone] was run?
Answer: 511 nM

From US9127001B2, “Substituted 4,5,6,7-tetrahydro-1H-pyrazolo[4,3-c]pyridines, their use as medicament, and pharmaceutical preparations comprising them” (Sanofi, priority 2011, dated 2015)
